Source: US6590140B1, “Metal-regulated transporters and uses therefor” (Trustees of Dartmouth College, priority 1996, dated 2003)
Where “and” joins values, the source holds several entries; their conditions need not be identical. Equal entries are not always repeated.

How the values were obtained:
[1] = tested on: zrt1 mutant (ZHY1) cells; type: cell-based, Saccharomyces cerevisiae; conditions: for effect on zrt1 growth in LIM: 500 μM metal added to iron-limiting medium LIM (1 mM EDTA)
Description: Strains used were DY1457 (MATα ade6 can1 his3 leu2 trp1 ura3) and ZHY1 (MaTα ade6 can1 his3 leu2 trp1 ura3 zrt1:: LEU2). Yeast were grown in standard culture media (SD, YPD) (Eide, D., Davis-Kaplan S., Jordan, I., Sipe, D., and Kaplan, J. (199: 2) J. Biol. Chem. 267, 20774-20781) supplemented with necessary auxotrophic requirements and either 2% glucose or 2% galactose. A zinc-limiting medium (LZM) was prepared in the same manner as LIM (Eide and Guarenete (1992) J. Gen. Microbiol. 138:347-354) except that […]. Cell number in liquid cultures was determined by measuring the optical density of cell suspensions at 600 nm (A600) and converting to cell number with a standard curve.
Strains used were DY1457 (MATα ade6 can1 his3 leu2 trp1 ura3), ZHY1 (AMTα ade6 can1 his3 leu2 trp1 ura3 zrt1::LEU2), ZHY2 (MATα ade6 can1 his3 leu2 trp1 ura3 zrt2::HIS3), and ZHY3 (MATα ade6 can1 his3 leu2 trp1 ura3 zrt1::LEU2 zrt2::HIS3). Yeast were grown in YP or SD media (Sherman et al. (1986) Methods in Yeast Genetics, Cold Spring Harbor Laboratory, Cold Spring Harbor, N.Y.) supplemented with necessary auxotrophic requirements and either 2% glucose or 2% galactose. Zinc-limiting YP and SD agar plates contained either bathophenanthroline disulfonate (BPS, 200 μM) or EDTA (1 mM), respectively. A liquid zinc-limiting medium (low zinc medium, LZM) was prepared in the same manner as low iron medium (LIM) (Eide and Guarente (1992) J. Gen. Microbiol. 138:347-354) except that the […]. LZM is similar in composition to SD medium with two modifications essential to controlling zinc availability. First, 1 mM EDTA is added to provide buffering for the concentration of free metal ions. Second, the medium is pH-buffered at 4.2 with 20 mM citrate to prevent pH changes that could alter the metal binding ability of EDTA. LZM was also prepared without EDTA ([…]) which is less zinc-limiting because the predominant chelator in this medium, citrate, binds zinc with less affinity than does EDTA. The concentrations of free (i.e. unchelated) zinc were calculated using MAXCHELATOR software (Chris Patton, Stanford University). Cell number in liquid cultures was determined by measuring the absorbance of cell suspensions at 600 nm (OD600) and converting to cell number with a standard curve.
To examine the function of ZRT1, a disruption mutation, zrt1::LEU2, was constructed by inserting the LEU2 gene into the center of ZRT1 (FIG. 6). This zrt1 disruption allele was then introduced into a haploid yeast strain. […] Because of the high EDTA concentration in LIM (1 mM), this medium is expected to have low available levels of other metals that are bound tightly by this chelator. Supplements of other metals were tested for improved growth of the zrt1 mutant in LIM. […] To study this effect further, a low zinc medium, LZM, was developed in which cell growth could be limited by zinc deficiency and the growth response of the wild type and zrt1 mutant strains to increasing levels of supplemented zinc was examined. Wild type (DY1457, squares) and zrt1 mutant (ZHY1, circles) cells were inoculated into LZM supplemented with the indicated amount of ZnSO4 and grown for 16 hours prior to cell number determination. […] Mutant zrt1 cells attained this same maximum number of cell divisions only with zinc supplements of 750 μM or more, i.e. a 75-fold increase in the zinc requirement of the zrt1 mutant compared to the wild type.
To further assess the role of the low affinity system as a source of zinc, growth of wild type and zrt2 cells in a zinc-limiting medium, LZM, supplemented with increasing amounts of zinc was examined. The same strains as in FIG. 15 were grown for six hours in SD glucose medium, harvested, washed in LZM, and reinoculated into either LZM (FIG. 15A) or LZM-EDTA (FIG. 15B) supplemented with the indicated concentrations of ZnCl2 ([Zn]T). […]

[2] = tested on: zrt1zrt2 strain; assay: Cell-associated zinc, zrt1zrt2 strain; type: cell-based, Saccharomyces cerevisiae
Description: Zinc uptake assays were performed as described previously for iron uptake (Eide et al. (1992) J. Biol. Chem. 267:20774-20781) except that ^65ZnCl2 (Amersham) and LZM-EDTA were substituted for ^59FeCI3 and LIM-EDTA, respectively. Cells were incubated for 5 minutes in LZM-EDTA plus the indicated concentration of ^65Zn, collected on glass fiber filters (Schleicher and Schuell), washed with 10 ml ice-cold SSW (1 mM EDTA, 20 mM trisodium citrate, 1 mM KH2PO4, 1 mM CaCl2, 5 mM MgSO4, 1 mM NaCl pH 4.2), and cell-associated radioactivity was measured by liquid scintillation counting. […] Michaelis-Menten kinetic values were determined using […] software (Intellikinetics, Princeton, N.J.). […] The statistical significance of the differences of values relative to controls was determined with one-way analysis of variance (ANOVA) followed by a Dunnett multiple comparison test. β-galactosidase activity was assayed in cells harvested at an OD600 of 0.5-2.0 as described by Guarente (Guarente, L. (1983) Methods Enzymol. 101:181-191) and activity is expressed as the change in absorbance at 420 nm×1000 divided by (min×ml of culture used×OD600 of the culture). Cell-associated zinc was measured in parallel cultures supplemented with tracer amounts of ^65Zn (10 μM) and nonradioactive zinc to the indicated final concentration. […]

For `[Cl-].[Cl-].[Co+2]` [Co], the “effect on zrt1 growth in LIM” value [1] was “no effect”.

With `[Cl][Cu][Cl]` [Cu] the “effect on zrt1 growth in LIM” value [1] was “no effect”.

In the case of `[Cl][Mn][Cl]` [Mn], the “effect on zrt1 growth in LIM” value [1] is reported as “no effect”.

For `[Zn+2]` [zinc], the “effect on zrt1 growth in LIM” value [1] was “greatly enhanced growth”, the “increase in zinc requirement of zrt1 mutant compared to wild type” value ([1]; growth in zinc-limiting medium) was 75 fold and 100 fold and the “total zinc required for maximum number of cell divisions” value ([1]; zrt1, LZM) was “approximately 500 μM”. The “total zinc for maximum number of divisions” value ([1]; zrt1, LZM-EDTA (LZM without EDTA), 16 hours) was 0.5 µM, the “calculated free zinc [Zn]F for maximum number of divisions” value ([1]; zrt1, LZM-EDTA, 16 hours) was about 6 nM and the “growth rate versus untreated culture” value ([1]; zrt1 cells, SD glucose supplemented with 2 mM ZnCl2) was “No difference in growth rate”. The cell-associated zinc ([2]; 10 μM total zinc) was 5±0.6 pmol/10^6 cells and the cell-associated zinc ([2]; 1000 μM total zinc) was 86±21 pmol/10^6 cells.
